Data from US20130130175A1, “Compound for Photoacid Generator, Resist Composition Using the Same, and Pattern-Forming Method” (CENTRAL GLASS COMPANY, LIMITED, priority 2007, published 2013).
Where two headings read alike, the source gives them in different places.

Assay: Solubility in propylene glycol methyl ether acetate
Assay type: physicochemical
Description: 1.0 g of sodium 2-(1′-adamantane)carbonyloxy-1,1-difluoroethanesulfonate synthesized in Synthesis Example 8 was weighed and added to 100 g of propylene glycol methyl ether acetate, followed by stirring.
1.0 g of sodium 2-(3′-hydroxy-1′-adamantane)carbonyloxy-1,1-difluoroethanesulfonate synthesized in Synthesis Example 11 was weighed and added to 100 g of propylene glycol methyl ether acetate, followed by stirring.

| SMILES | Solubility | Solubility (1.0 g added to 100 g of propylene glycol methyl ether acetate, stirring) |
| --- | --- | --- |
| O=C(OCC(F)(F)S(=O)(=O)O)C12CC3CC(CC(C3)C1)C2 [Synthesis Example 8, triphenylsulfonium 2-(1′-adamantane)carbonyloxy-1,1-difluoroethanesulfonate] | completely dissolved | – |
| O=C(OCC(F)(F)S(=O)(=O)O)C12CC3CC(CC(O)(C3)C1)C2 [Synthesis Example 11, triphenylsulfonium 2-(3′-hydroxy-1′-adamantane)carbonyloxy-1,1-difluoroethanesulfonate] | – | completely dissolved |
